Experimental data reported in PubChem BioAssay (NCI).
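In this assay, cells in 96-well plates receive the compound at five concentrations for 48 hours. Endpoints are linearly interpolated between the surrounding concentrations. GI50 marks 50% less growth. TGI is the concentration that stops growth completely.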

Experiments:
Test in all cases: inhibition of tumour cell growth, NCI panel, 48 h
HCT-116 colon = tested on: HCT-116 colon
SNB-75 CNS = tested on: SNB-75 CNS
OVCAR-3 ovarian = tested on: OVCAR-3 ovarian
RXF 393 renal = tested on: RXF 393 renal
SNB-19 CNS = tested on: SNB-19 CNS
CAKI-1 renal = tested on: CAKI-1 renal
MCF7 breast = tested on: MCF7 breast
HOP-92 NSCLC = tested on: HOP-92 NSCLC
MDA-MB-435 = tested on: MDA-MB-435
PC-3 prostate = tested on: PC-3 prostate

SMILES | TGI (HCT-116 colon) | TGI (SNB-75 CNS) | TGI (OVCAR-3 ovarian) | TGI (RXF 393 renal) | TGI (SNB-19 CNS) | TGI (CAKI-1 renal) | TGI (MCF7 breast) | TGI (HOP-92 NSCLC) | TGI (MDA-MB-435) | TGI (PC-3 prostate) | GI50 (HCT-116 colon) | GI50 (SNB-75 CNS) | GI50 (OVCAR-3 ovarian) | GI50 (CAKI-1 renal) | GI50 (HOP-92 NSCLC) | GI50 (MDA-MB-435) | GI50 (RXF 393 renal) | GI50 (SNB-19 CNS) | GI50 (PC-3 prostate)
Cc1ccc(SSCCCCCS(=O)O)cc1 | 28.4 µM | 63.1 µM | 74.7 µM | 43.3 µM | > 100 µM | – | – | – | – | – | – | – | – | – | – | – | – | – | –
CNC(=O)Nc1ccccc1 | > 100 µM | > 100 µM | > 100 µM | > 100 µM | > 100 µM | > 100 µM | > 100 µM | > 100 µM | > 100 µM | > 100 µM | – | – | – | – | – | – | – | – | –
O=C(COc1ccc(Cl)cc1Cl)N/N=C/C=C/c1ccc([N+](=O)[O-])o1 | – | 59.2 µM | > 100 µM | 59.8 µM | 41.4 µM | > 100 µM | > 100 µM | – | > 100 µM | > 100 µM | – | – | – | – | – | – | – | – | –
C[N+](C)(CCO)CCN1c2ccccc2Sc2ccccc21 | > 10 µM | > 10 µM | > 10 µM | > 10 µM | > 10 µM | > 10 µM | > 10 µM | – | > 10 µM | > 10 µM | – | – | – | – | – | – | – | – | –
COc1ccc2c(c1)CC[C@@H]1[C@@H]2CC[C@]2(C)C(=O)/C(=C/c3ccc(O)c(OC)c3)C[C@@H]12 | – | – | > 100 µM | > 100 µM | > 100 µM | > 100 µM | > 100 µM | > 100 µM | > 100 µM | > 100 µM | – | – | – | – | – | – | – | – | –
C[C@]12CCC(=O)C=C1CC[C@@H]1[C@@H]2[C@@H](O)C[C@@]2(C)[C@H]1CC[C@]2(O)C(=O)COC(=O)C1CCCC1 | > 100 µM | > 100 µM | > 100 µM | > 100 µM | > 100 µM | > 100 µM | > 100 µM | > 100 µM | > 100 µM | > 100 µM | – | – | – | – | – | – | – | – | –
O=S(O)c1cc(Cl)cc(Cl)c1OCc1ccccc1 | > 100 µM | > 100 µM | > 100 µM | > 100 µM | > 100 µM | – | – | – | – | – | – | – | – | – | – | – | – | – | –
COc1cc2c(cc1OC)-c1cc3ccc(OC)c(OC)c3c[n+]1CC2 | > 100 µM | > 100 µM | > 100 µM | > 100 µM | 68 µM | > 100 µM | > 100 µM | > 100 µM | > 100 µM | > 100 µM | – | – | – | – | – | – | – | – | –
O=C(NNC(=O)c1nsc2ccccc12)c1ccc(Cl)cc1 | 39.2 µM | 15.6 µM | 36.6 µM | 30.3 µM | 42.3 µM | – | – | 32.8 µM | – | – | – | – | – | – | – | – | – | – | –
Nc1nc(=O)n(CC(O)CO)s1 (configuration not stated) | > 100 µM | > 100 µM | > 100 µM | > 100 µM | > 100 µM | – | – | – | – | – | – | – | – | – | – | – | – | – | –
Clc1ccc(-c2nnc(-c3c(Cl)c(Cl)c(Cl)c(Cl)c3-c3nc4ccccc4[nH]3)o2)cc1 | > 100 µM | > 100 µM | > 100 µM | > 100 µM | – | > 100 µM | > 100 µM | > 100 µM | > 100 µM | > 100 µM | – | – | – | – | – | – | – | – | –
O=C1C[C@H](CCC(=O)OCc2ccccc2)NC(=O)C[C@H](CCC(=O)OCc2ccccc2)NC(=O)C[C@H](CCC(=O)OCc2ccccc2)N1 | > 100 µM | 6.73 µM | > 100 µM | 8.23 µM | > 100 µM | > 100 µM | > 100 µM | 18.8 µM | > 100 µM | > 100 µM | – | – | – | – | – | – | – | – | –
CCOC(=O)c1c(CN2CCCC2)n(-c2ccccc2)c2cc(Br)c(OC)cc12 | 26.5 µM | 62.5 µM | 61.2 µM | 17.5 µM | > 100 µM | > 100 µM | 23.4 µM | 33.2 µM | > 100 µM | 77.2 µM | – | – | – | – | – | – | – | – | –
COc1ccc(C2C(C=O)C(N3CCN(C)CC3)=Nc3nc4ccccc4n32)cc1 (configuration not stated) | 29.8 µM | 31.3 µM | 40.5 µM | 39.2 µM | 41 µM | 52.4 µM | 36.3 µM | 24.3 µM | 39.7 µM | 36.9 µM | – | – | – | – | – | – | – | – | –
Cn1c(=O)c2c(nc(NCCNc3nc4c(c(=O)n(C)c(=O)n4C)n3C)n2C)n(C)c1=O | > 100 µM | > 100 µM | > 100 µM | > 100 µM | > 100 µM | > 100 µM | – | > 100 µM | > 100 µM | > 100 µM | – | – | – | – | – | – | – | – | –
COc1ccc2nc3ccccc3c(NCc3ccc(C)cc3)c2c1 | 6.24 µM | 2.85 µM | 4.36 µM | 2.83 µM | 11.4 µM | 2.98 µM | – | 3.12 µM | 2.89 µM | 4.49 µM | 0.848 µM | 1.49 µM | 2 µM | 1.59 µM | 1.27 µM | 1.44 µM | 1.32 µM | 2.97 µM | 1.64 µM
NC(CC(=O)O)(Cc1ccccc1)C(=O)O (configuration not stated) | > 100 µM | > 100 µM | > 100 µM | > 100 µM | > 100 µM | > 100 µM | > 100 µM | > 100 µM | > 100 µM | > 100 µM | – | – | – | – | – | – | – | – | –
CC(=O)C1=C(O)CCC1=O | > 100 µM | > 100 µM | > 100 µM | > 100 µM | > 100 µM | > 100 µM | > 100 µM | > 100 µM | > 100 µM | > 100 µM | – | – | – | – | – | – | – | – | –
